Measurements: ChEMBL document CHEMBL1201862, “PubChem BioAssay data set” (2004)
The source made the active and inactive calls.

Key:
Large T antigen = Large T antigen (Simian virus 40, UniProt P03070); type: functional, Betapolyomavirus macacae;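 note: Confirmatory-stage PubChem screen for compounds that inhibit SV40 T antigen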
[1] = molecular target: Heat shock protein HSP 90-alpha (Homo sapiens, UniProt P07900); type: functional, organism-based
[2] = molecular target: T1, Microphthalmia-associated transcription factor (Homo sapiens, UniProt O75030); assay: reducers of TRPM1 reporter luminescence, concentration series – cell-based, SK-MEL-5, cherry-picked, set 3, MITF inhibitor project, dose response (AID 493073); type: functional;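 note: SK-MEL-5 melanoma cells with luciferase driven by the MITF target TRPM1 promoter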
T1 sequence (O75030 whole entry): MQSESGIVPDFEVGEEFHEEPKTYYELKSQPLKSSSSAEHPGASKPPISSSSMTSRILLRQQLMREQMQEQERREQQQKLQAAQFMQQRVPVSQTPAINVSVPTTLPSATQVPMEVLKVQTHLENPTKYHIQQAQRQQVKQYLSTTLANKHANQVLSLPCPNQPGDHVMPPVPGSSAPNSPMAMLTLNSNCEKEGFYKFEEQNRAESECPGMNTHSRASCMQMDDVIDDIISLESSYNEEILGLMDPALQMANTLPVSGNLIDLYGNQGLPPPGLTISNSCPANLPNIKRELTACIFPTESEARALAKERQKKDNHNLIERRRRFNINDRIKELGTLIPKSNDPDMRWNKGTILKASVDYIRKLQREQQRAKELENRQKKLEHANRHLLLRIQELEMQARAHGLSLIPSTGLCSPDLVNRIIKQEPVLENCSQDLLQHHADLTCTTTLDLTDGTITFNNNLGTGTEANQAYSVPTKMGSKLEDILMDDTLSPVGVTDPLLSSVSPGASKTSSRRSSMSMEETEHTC

[3] = molecular target: T2, Replicative DNA helicase DnaB (Mycobacterium tuberculosis, UniProt P9WMR3); assay: DnaB intein splicing inhibitors, dose response, biochemical, cell-free fluorescence (AID 449749); type: functional
T2 sequence (P9WMR3 whole entry): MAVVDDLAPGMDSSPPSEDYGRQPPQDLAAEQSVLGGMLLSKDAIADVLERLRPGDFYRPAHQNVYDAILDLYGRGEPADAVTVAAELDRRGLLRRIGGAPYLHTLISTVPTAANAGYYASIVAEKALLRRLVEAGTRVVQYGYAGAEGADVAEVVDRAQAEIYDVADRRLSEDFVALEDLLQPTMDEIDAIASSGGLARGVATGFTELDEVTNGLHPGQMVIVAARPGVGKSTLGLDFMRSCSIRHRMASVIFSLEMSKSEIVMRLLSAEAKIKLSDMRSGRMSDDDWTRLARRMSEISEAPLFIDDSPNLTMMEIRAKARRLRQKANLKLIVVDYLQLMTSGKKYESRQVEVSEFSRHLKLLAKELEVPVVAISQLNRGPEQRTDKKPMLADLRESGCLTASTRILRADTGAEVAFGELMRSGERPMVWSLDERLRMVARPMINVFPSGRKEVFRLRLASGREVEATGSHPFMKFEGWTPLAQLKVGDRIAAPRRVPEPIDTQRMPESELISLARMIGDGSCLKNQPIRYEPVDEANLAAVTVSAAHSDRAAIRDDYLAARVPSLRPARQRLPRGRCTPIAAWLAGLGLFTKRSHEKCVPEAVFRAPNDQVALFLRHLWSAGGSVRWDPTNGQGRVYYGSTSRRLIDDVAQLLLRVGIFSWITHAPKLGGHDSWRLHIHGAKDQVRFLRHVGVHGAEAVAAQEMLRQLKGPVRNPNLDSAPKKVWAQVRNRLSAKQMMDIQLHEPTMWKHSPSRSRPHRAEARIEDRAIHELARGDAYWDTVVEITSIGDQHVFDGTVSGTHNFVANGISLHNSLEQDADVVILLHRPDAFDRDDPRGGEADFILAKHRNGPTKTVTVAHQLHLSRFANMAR

[4] = molecular target: Glyceraldehyde-3-phosphate dehydrogenase (Homo sapiens, UniProt P04406)
Genome polyprotein = Genome polyprotein (dengue virus type 2, UniProt P29990); assay: flavivirus cap methylation enzyme inhibition – biochemical, confirmation dose response, primary screen (AID 588689); type: functional
Protein RecA = molecular target: T3, Protein RecA (Mycobacterium tuberculosis, UniProt P9WHJ3); assay: Fluorescence Cell-Free Homogeneous Dose Retest to Identify Inhibitors of RecA-Intein Splicing Activity. [Related pubchem assays (depositor defined):AID2097, AID2223, AID489010, AID492950]; type: functional
T3 sequence (P9WHJ3 whole entry): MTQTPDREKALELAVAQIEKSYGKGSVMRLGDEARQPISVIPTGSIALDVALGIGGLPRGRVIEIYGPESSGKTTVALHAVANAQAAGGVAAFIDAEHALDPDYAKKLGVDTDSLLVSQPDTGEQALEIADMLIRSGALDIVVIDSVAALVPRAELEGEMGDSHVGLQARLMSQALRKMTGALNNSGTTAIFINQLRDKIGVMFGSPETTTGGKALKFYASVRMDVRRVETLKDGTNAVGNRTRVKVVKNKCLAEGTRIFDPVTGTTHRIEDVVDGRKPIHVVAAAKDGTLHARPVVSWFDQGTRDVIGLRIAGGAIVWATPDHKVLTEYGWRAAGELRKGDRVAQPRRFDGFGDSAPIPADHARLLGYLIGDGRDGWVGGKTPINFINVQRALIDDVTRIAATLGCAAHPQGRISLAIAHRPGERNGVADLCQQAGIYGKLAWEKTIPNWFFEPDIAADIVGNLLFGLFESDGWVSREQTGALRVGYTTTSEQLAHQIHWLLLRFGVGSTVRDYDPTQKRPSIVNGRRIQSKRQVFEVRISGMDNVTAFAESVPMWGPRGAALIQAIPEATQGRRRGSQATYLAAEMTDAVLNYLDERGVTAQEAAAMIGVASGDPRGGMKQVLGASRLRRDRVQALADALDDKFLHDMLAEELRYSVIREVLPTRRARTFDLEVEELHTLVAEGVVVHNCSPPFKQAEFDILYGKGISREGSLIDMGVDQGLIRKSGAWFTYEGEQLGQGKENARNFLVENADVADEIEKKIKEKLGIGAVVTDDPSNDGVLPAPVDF

[5] = molecular target: T4, Endoribonuclease toxin MazF (Escherichia coli K-12, UniProt P0AE70); assay: substrate-only fluorescence increase artefacts – biochemical, single-stranded RNase substrate, counter-screen for MazEF activator project, dose response (AID 588502); type: functional
T4 sequence (P0AE70 whole entry): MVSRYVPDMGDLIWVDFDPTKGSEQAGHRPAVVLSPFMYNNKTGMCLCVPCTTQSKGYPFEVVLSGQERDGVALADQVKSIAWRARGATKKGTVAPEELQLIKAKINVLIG

[6] = molecular target: T4, Endoribonuclease toxin MazF; assay: activation of MazEF endoribonuclease cleavage – biochemical, fluorescence, single-stranded RNA substrate, uHTS hits, dose response (AID 588481); type: functional
[7] = molecular target: T5, RNA-binding protein pos-1 (Caenorhabditis elegans, UniProt G5EF15); assay: disruptors of C. elegans POS-1 RNA interaction – biochemical, fluorescence polarization, dose response (AID 1964);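 note: purified POS-1 fused to maltose binding protein made in E. coli; potency of compounds blocking POS-1 binding to fluorescent RNA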
T5 sequence (G5EF15 whole entry): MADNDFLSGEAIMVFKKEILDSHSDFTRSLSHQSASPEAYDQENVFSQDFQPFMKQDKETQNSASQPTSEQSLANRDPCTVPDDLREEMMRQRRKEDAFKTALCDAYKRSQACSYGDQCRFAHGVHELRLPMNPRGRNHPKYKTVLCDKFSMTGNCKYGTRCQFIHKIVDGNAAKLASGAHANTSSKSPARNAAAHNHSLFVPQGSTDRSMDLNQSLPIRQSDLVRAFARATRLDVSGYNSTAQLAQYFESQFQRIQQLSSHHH

[8] = molecular target: T6, Zinc finger protein mex-5 (Caenorhabditis elegans, UniProt Q9XUB2); assay: potency of MEX-5 RNA-binding blockers – biochemical, C. elegans, fluorescence polarization, dose response (AID 1960)
T6 sequence (Q9XUB2 whole entry): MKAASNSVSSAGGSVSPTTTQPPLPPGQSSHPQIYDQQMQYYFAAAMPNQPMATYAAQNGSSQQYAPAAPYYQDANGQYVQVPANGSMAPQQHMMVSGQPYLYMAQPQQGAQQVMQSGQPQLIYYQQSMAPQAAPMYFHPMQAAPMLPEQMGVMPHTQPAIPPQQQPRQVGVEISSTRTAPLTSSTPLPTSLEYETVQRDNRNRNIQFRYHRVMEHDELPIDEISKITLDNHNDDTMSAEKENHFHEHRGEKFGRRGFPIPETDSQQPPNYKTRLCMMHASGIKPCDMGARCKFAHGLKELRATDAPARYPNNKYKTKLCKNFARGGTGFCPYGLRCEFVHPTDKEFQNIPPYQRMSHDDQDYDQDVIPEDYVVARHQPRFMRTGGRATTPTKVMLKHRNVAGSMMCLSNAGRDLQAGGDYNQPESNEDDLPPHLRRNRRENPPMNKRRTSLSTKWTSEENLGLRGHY

[9] = molecular target: FAD-linked sulfhydryl oxidase ALR (Homo sapiens, UniProt P55789); assay: ALR-catalysed DTT oxidation blockers – biochemical, H2O2 detection, luminescence, cherry-pick, dose response (AID 493248)
cells [10] = type: functional
[11] = HEK-293T viability loss after treatment – luminescence, T-cell screen hits, cytotoxicity control for TCR NF-kB inhibitor project, dose response (AID 489026); type: functional, cell-based;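 note: cells exposed to compound about 14 hours before the viability readout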
[12] = viability of uninfected HEp-2 cells – cell-based, HTS, cytotoxicity control for RSV inhibitor project, dose response (AID 2410); type: functional; conditions: human respiratory syncytial virus
cells [13] = type: functional, cell-based
[14] = molecular target: T7, Trace amine-associated receptor 1 (Homo sapiens, UniProt Q96RJ0); assay: Counterscreen for agonists of the human trace amine associated receptor 1 (hTAAR1): Fluorescence-based cell-based high throughput dose response assay to identify hTAAR1 agonist that also desensitize TAAR1 receptor response.; type: functional
T7 sequence (Q96RJ0 whole entry): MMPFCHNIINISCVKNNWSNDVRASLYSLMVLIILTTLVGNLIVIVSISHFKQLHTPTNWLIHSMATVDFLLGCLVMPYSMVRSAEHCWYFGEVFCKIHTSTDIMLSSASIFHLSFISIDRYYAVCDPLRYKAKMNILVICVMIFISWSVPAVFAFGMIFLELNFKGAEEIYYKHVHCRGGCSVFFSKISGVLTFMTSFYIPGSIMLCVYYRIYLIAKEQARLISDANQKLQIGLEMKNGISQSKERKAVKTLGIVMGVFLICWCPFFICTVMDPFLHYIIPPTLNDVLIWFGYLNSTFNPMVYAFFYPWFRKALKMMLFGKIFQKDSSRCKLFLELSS

cells [15] = type: functional, cell-based; remark: listed apart in the source
[16] = molecular target: T7, Trace amine-associated receptor 1; assay: Fluorescence-based cell-based high throughput dose response assay to identify agonists of the human trace amine associated receptor 1 (TAAR1).; type: functional

Chain of Glyceraldehyde-3-phosphate dehydrogenase (P04406 whole entry): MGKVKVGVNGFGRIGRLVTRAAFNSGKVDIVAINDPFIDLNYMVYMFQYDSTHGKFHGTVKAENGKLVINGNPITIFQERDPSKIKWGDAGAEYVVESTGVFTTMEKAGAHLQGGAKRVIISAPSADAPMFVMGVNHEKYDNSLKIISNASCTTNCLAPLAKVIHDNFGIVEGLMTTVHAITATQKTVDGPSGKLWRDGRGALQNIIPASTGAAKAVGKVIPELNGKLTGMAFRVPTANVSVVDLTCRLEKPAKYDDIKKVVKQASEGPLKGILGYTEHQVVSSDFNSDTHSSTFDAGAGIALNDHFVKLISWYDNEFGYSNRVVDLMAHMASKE
Chain of Genome polyprotein (P29990 2492-3391 limits assumed): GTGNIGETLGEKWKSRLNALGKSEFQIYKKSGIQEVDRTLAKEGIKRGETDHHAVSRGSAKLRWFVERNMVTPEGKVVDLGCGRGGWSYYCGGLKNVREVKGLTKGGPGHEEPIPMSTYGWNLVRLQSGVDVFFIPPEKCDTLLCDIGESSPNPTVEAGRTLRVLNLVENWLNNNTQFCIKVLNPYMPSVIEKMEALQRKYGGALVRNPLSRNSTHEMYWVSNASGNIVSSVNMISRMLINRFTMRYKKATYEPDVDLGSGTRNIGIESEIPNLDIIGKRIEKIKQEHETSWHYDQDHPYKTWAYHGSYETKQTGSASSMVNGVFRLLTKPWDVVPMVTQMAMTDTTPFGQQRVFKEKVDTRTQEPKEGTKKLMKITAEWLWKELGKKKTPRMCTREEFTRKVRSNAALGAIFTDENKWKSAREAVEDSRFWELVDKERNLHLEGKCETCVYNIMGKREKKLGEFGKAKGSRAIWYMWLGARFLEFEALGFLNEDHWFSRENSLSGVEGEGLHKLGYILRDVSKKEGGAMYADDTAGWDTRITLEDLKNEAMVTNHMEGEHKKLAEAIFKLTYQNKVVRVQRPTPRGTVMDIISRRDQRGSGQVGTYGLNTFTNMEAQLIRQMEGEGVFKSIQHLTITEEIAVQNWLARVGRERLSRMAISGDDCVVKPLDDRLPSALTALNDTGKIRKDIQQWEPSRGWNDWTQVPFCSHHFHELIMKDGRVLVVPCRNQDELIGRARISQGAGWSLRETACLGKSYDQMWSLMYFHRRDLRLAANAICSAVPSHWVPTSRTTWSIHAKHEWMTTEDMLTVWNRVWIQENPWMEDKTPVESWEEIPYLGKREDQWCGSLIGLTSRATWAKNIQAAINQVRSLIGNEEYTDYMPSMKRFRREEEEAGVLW
Chain of FAD-linked sulfhydryl oxidase ALR (P55789 whole entry): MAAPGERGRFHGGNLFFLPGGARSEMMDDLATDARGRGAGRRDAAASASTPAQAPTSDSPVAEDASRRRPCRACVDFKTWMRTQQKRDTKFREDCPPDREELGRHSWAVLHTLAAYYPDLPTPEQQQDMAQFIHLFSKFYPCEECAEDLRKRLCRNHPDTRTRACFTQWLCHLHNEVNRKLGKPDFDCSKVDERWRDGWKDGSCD
Chain of Large T antigen (P03070 whole entry): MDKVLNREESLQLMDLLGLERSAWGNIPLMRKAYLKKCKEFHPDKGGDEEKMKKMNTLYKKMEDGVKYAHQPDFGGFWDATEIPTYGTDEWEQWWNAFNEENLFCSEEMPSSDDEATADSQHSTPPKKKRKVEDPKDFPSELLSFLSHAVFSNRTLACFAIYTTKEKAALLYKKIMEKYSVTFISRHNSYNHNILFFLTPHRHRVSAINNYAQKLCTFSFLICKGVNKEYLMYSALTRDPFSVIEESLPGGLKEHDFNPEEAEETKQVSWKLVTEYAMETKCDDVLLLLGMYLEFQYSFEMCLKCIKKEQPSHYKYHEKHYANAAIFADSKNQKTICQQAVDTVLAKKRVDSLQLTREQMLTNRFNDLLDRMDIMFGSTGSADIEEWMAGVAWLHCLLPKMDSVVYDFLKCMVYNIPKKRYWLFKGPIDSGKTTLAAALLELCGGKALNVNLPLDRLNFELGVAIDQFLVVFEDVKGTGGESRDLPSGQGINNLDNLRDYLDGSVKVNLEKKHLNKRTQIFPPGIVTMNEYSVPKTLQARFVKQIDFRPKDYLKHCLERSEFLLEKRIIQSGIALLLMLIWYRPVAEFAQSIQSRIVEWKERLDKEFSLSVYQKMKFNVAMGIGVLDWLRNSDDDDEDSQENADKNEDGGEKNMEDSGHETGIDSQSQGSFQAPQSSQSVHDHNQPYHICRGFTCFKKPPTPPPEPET

SMILES: CC[C@H](C)/C=C/C1=CC2=C(Cl)C(=O)[C@@]3(C)OC(=O)C(C(=O)[C@H](C)[C@@H](C)O)=C3C2=CO1
- IC50 (Large T antigen): 44 µM (active)
- AC50 [1]: 7.41 µM (active)

SMILES: O=C1NC(=O)N(Cc2ccccc2Cl)C(=O)/C1=C/c1cccs1
- AC50 [2]: 29.7 µM (active)

SMILES: O=C1CC(N2CCC(c3nc4ccccc4o3)CC2)C(=O)N1c1ccc(Cl)c(C(F)(F)F)c1 (centres undefined)
- AC50 [1]: 2.08 µM (active)

SMILES: Cc1cccc(N2C(=O)C(Cl)=C(N3CCOCC3)C2=O)c1
- AC50 [3]: 6.69 µM (active)
- IC50 [4]: > 50 µM (inconclusive)
- IC50 (Genome polyprotein): 34.5 µM (active)
- EC50 (Protein RecA): 1.9 µM (active)

SMILES: CCN(CC)S(=O)(=O)c1ccc(C(=O)/C=C/c2ccc(-c3ccc([N+](=O)[O-])cc3)o2)cc1
- EC50 [5]: > 99 µM (inactive)
- EC50 [6]: > 99 µM (inactive)

SMILES: COCCN1C(=O)/C(=C/c2c(OC)cc(OC)cc2OC)C(=O)N(c2ccccc2)C1=O
- EC50 [7]: 131 µM (active)
- EC50 [8]: > 300 µM (not active)

SMILES: COc1cccc(N2C(=O)C(Cl)=C(N3CCN(c4ccccc4)CC3)C2=O)c1
- IC50 [4]: > 50 µM (inconclusive)

SMILES: Cc1ccc(Sc2ccc(C=C3C(=O)N(C)C(=O)N(C)C3=O)o2)cc1
- AC50 [9]: 0.25 µM (active)
- IC50 (Genome polyprotein): 14.5 µM (active)
- EC50 [7]: > 300 µM (not active)
- IC50 (cells [10]): 21.4 µM (active)
- EC50 [8]: 25.5 µM (inconclusive)

SMILES: O=C(Nc1ccccc1)c1ccc(NCCc2ccccc2)c([N+](=O)[O-])c1
- EC50 [5]: 84.3 µM (inactive)
- EC50 [6]: > 99 µM (inactive)

SMILES: CC1(C)Cc2nc3sc4c(=O)n(CC(=O)NCc5ccccc5)cnc4c3cc2CO1
- IC50 [11]: > 80 µM (inactive)

SMILES: CN1CCN(c2ccc(NC(=O)c3ccc([N+](=O)[O-])o3)cc2Cl)CC1
- AC50 [2]: 9.02 µM (active)

SMILES: O=[N+]([O-])/C=C/c1c(Cl)cccc1Cl
- AC50 [1]: 1.12 µM (active)

SMILES: CC1=CC2=C(C=O)C(=O)C(C)(O)C(O)C2=CO1 (centres undefined)
- EC50 [5]: > 99 µM (inactive)
- EC50 [6]: > 99 µM (inactive)

SMILES: COc1ccc(-c2nn(-c3ccccc3)cc2C(=O)N2CCN(S(=O)(=O)c3ccccc3[N+](=O)[O-])CC2)cc1
- AC50 [1]: 3.97 µM (active)

SMILES: CCOC(=O)/C(C#N)=N\Nc1cc(Cl)ccc1OC
- EC50 [5]: 44.1 µM (inactive)
- EC50 [6]: > 99 µM (inactive)

SMILES: O=[N+]([O-])c1ccc(N/N=C/c2ccccc2)c(F)c1
- EC50 [5]: 27.2 µM (inactive)
- CC50 [12]: > 50 µM (active)
- EC50 [6]: > 99 µM (inactive)

SMILES: COc1cccc(C)c1NC1=NCCO1
- EC50 (cells [13]): > 29.9 µM (inactive)
- IC50 [14]: 4.12 µM (active)
- IC50 (cells [15]): > 29.9 µM (inactive)
- EC50 [16]: 0.734 µM (active)

SMILES: O=C(CNC(=O)c1ccccc1F)N/N=C\C=C\c1ccccc1
- EC50 (cells [13]): > 29.9 µM (inactive)
- IC50 [14]: 9.57 µM (active)
- IC50 (cells [15]): > 29.9 µM (inactive)
- EC50 [16]: > 29.9 µM (inactive)
